We go through four compounds from patent publication US10837001B2, “Cardiomyocyte maturation platform” (The Regents of the University of California, priority 2016, dated 2020).

In experiment [1] the test system is iPSC-derived CM. Description: qPCR of maturation markers with EC-conditioned medium / EC co-culture and ET or notch inhibition. In kind it is cell-based, human. As to conditions: 20 μM, EC and CM co-cultured, 7 days. On the procedure: EC and iPSC-derived CMs were plated onto Matrigel Growth Factor Reduced (BD) coated dishes. Cells were fed with RPMI media supplemented with B27 (Life Technologies) and Endothelial Cell Growth Supplement (ECGS; BD Biosciences) every 2-3 days. EC-conditioned medium was collected after 1-3 days of EC growth. Endothelin inhibition was achieved by adding 10 nM PD145065 inhibitor (EMD Millipore) and notch inhibition with 20 μM DAPT (Sigma) at every media change. Cells were fed on days 1 and 4 and then harvested after 7 days.
RNA was extracted using TRIzol (Life Technologies) according to manufacturer's instructions. Three micrograms of RNA was used to generate cDNA using the iSCRIPT cDNA Synthesis Kit (Bio-Rad). The reaction mix included SYBR green chemistry and primers generated by IDT Technologies. The samples were analyzed using an iQ5 Real Time PCR Detection System (Bio-Rad). The control sample, compared to EC/iPSC-derived CM co-culture, consisted of a mix of equal parts EC and iPSC-derived CM RNA that were isolated separately. (n=3; *p<0.05 **p<0.01 ***p<0.001, Student's t-test)

Experiment [2] has as its system iPSC-derived CM. As to conditions: endothelial cells/cardiomyocyte co-culture; cited from earlier work.
The subject of experiment [3] is iPSC-derived cardiomyocytes. Description: Pharmacological treatment of iPSC-derived cardiomyocytes (beat rate, calcium transient). In kind it is cell-based, human. On the procedure: The iPSC-derived cardiomyocytes have been engineered to express a calcium indicator (GCaMP6f reporter) that emits fluorescence in the presence of cytosolic calcium. Calcium transients were measured using an epifluorescent microscope with an inverted 10× objective (IX70 Olympus, Tokyo, Japan). Images were captured using a SPOT Idea 3.0 megapixel color fluorescent camera and SPOT acquisition software (SPOT Imaging Solutions, Sterling Heights, Mich.). The cells were placed in a 37° C. heated stage during imaging. The video was captured at 33 frames/second with 8×8 binning. ImageJ was used to process and extract the temporal fluorescence intensity of the acquired video data. Subsequent data were analyzed using MATLAB software (MathWorks, Torrance, Calif.). A customized algorithm determined the troughs and peaks of each calcium wave and measured the amplitude, max upslope, max downslope, time to 50% decay, and beat rate. Additional measurements included the effect of caffeine on the slope of amplitude change. Baseline and drug recordings were taken before and after 10 min incubation with the drug(s) on the 37° C. stage. All recordings were taken over 1 min. The order of the β-adrenergic drug treatments was baseline, 1 μM isoproterenol (Sigma #16504), and 1 μM Isoproterenol+10 μM Propranolol (Sigma # P0884). The effect of caffeine (Tocris #2793) on calcium signaling was assessed at a final concentration of 20 mM. The video recordings were acquired before and during the addition of caffeine.

For `C[C@H](NC(=O)Cc1cc(F)cc(F)c1)C(=O)N[C@H](C(=O)OC(C)(C)C)c1ccccc1` [DAPT], the “Maturation markers Junctin, SERCA2a, CaV1.2” value in experiment [1] was “decrease”. For the same compound, the cTNT expression result in experiment [2] is “decrease”.

As for `CC(C)NCC(O)c1ccc(O)c(O)c1` (centres unmarked) [isoproterenol], the Beat rate entry in experiment [3] (1 μM, 10 min incubation) is recorded as “increased their beat rate”; in experiment [3] (cells cultured in 3D compared to cells in 2D culture) it was “increased beat rate”.

For `Cn1c(=O)c2c(ncn2C)n(C)c1=O` [caffeine], in experiment [3] (20 mM, 3D culture vs 2D), the Calcium release entry was “more rapid release of calcium”, the “Time to maximum calcium concentration” value is listed as “quicker” and the “Upslope (velocity of calcium release)” value is “steeper”.

On to `CC(C)NCC(O)COc1cccc2ccccc12` (centres unmarked) [propranolol], for which, in experiment [3] (10 μM added after 1 μM isoproterenol), the Beat rate entry is recorded as “decreased to baseline levels”.
